ChEMBL document CHEMBL1201862, “PubChem BioAssay data set” (2004)
The source made the active and inactive calls.

Legend:
[1] = target: T1, Runt-related transcription factor 1/Core-binding factor subunit beta (Homo sapiens, UniProt Q01196+Q13951); experiment: disruptors of Runt domain/CBFb-SMMHC interaction – biochemical, FRET, Cerulean-Runt, Venus-CBFb-SMMHC, uHTS, […] (AID 1434); type: protein assay
[2] = target: T1, Runt-related transcription factor 1/Core-binding factor subunit beta; experiment: Runt domain/CBFb-SMMHC interaction disruptors – biochemical, TR-FRET (AID 1438); type: protein assay
Troponin, cardiac muscle = Troponin, cardiac muscle (Homo sapiens, UniProt P19429+P45379+P63316); experiment: Fluorescence-based biochemical high throughput dose response assay for activators of the calcium sensitivity of cardiac Regulated Thin Filaments (RTF). [Related pubchem assays (depositor defined):AID493008, AID493018, AID504382, AID504383]; type: protein-complex assay
Estrogen receptor = target: T2, Estrogen receptor (Homo sapiens, UniProt P03372);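 also: potency for inhibiting coactivator peptide recruitment to the receptor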
T2 sequence (P03372 whole entry): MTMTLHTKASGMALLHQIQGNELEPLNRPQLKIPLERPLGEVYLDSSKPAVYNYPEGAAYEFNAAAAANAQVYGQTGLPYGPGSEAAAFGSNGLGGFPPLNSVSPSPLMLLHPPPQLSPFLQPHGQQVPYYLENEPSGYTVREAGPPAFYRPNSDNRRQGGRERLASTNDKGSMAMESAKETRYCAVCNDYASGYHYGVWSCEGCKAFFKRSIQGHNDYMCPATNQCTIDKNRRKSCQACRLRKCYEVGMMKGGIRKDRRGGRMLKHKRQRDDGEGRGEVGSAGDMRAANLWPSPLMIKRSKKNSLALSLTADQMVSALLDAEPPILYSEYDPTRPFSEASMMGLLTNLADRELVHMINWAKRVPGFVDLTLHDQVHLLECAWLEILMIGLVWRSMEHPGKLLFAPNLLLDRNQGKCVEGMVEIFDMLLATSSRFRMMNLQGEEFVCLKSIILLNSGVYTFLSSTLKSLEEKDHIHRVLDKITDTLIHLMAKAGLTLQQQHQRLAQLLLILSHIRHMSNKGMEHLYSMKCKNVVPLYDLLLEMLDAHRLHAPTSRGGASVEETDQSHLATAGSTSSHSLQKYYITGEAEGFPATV

[3] = target: T3, Corticotropin-releasing factor receptor 2/Corticotropin-releasing factor-binding protein (Homo sapiens, UniProt P24387+Q13324); experiment: activators of CRF receptor 2 with binding protein – uHTS hits, confirmation (AID 602473); type: functional; conditions: read-out: EC50_Mean
T3 sequence (Q13324 whole entry): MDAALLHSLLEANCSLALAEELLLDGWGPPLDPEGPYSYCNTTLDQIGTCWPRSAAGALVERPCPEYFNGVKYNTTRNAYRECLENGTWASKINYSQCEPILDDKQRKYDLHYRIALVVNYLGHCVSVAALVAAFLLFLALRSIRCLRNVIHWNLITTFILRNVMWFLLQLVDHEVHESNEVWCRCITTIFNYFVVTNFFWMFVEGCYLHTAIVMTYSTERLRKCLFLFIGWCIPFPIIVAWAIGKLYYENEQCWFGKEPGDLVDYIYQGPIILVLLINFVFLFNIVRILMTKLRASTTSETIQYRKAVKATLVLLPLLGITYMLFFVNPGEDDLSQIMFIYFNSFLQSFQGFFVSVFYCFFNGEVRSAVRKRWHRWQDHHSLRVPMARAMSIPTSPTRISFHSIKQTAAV
T3 sequence (P24387 whole entry): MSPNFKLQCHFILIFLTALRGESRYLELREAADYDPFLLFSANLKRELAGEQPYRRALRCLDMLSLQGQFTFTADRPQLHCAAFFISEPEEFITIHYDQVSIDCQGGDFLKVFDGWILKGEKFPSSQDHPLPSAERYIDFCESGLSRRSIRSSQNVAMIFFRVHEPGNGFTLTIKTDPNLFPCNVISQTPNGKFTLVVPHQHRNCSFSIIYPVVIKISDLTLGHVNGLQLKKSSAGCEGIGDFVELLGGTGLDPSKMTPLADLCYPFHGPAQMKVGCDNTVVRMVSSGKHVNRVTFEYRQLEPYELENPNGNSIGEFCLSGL

[4] = target: T3, Corticotropin-releasing factor receptor 2/Corticotropin-releasing factor-binding protein; experiment: Dose Response confirmation of uHTS hits for small molecule antagonists of the CRF-binding protein and CRF-R2 receptor complex.; type: functional; conditions: read-out: IC50_Mean
Protein Rev = Protein Rev (Human immunodeficiency virus type 1 group M subtype B (isolate HXB2)(HIV-1), UniProt P04618); experiment: blockers of HIV Rev/RRE RNA complex – biochemical, fluorescence polarization, HIV-1, dose response (AID 434976); parameters: species or system Human immunodeficiency virus 1
[5] = target: Female germline-specific tumor suppressor gld-1 (Caenorhabditis elegans, UniProt Q17339); experiment: blockers of GLD-1/TGE RNA complex formation – biochemical, fluorescence polarization, C. elegans, dose response (AID 2802);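 also: fluorescence polarization of labeled TGE RNA bound by purified gld-1 protein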
[6] = target: Peroxisome proliferator-activated receptor gamma/Nuclear receptor coactivator 2 (Homo sapiens, UniProt P37231); experiment: (§1) TR-FRET dose response biochemical High Throughput Screening assay for agonists of the steroid receptor coactivator 2 (SRC-2) recruitment by the peroxisome proliferator-activated receptor gamma (PPAR gamma): non-selective agonists. [Related pubchem assays: 1297, 1032 ]; type: functional
[7] = target: Peroxisome proliferator-activated receptor gamma/Nuclear receptor coactivator 1 (Homo sapiens, UniProt P37231); experiment: as §1, with “1 (SRC-1)” for “2 (SRC-2)”, “assays (depositor defined):AID1300, AID1808, AID504735, AID631]” for “assays: 1297, 1032 ]”; type: protein assay
[8] = target: Peroxisome proliferator-activated receptor gamma/Nuclear receptor coactivator 3 (Homo sapiens, UniProt P37231); experiment: as §1, with “3 (SRC-3)” for “2 (SRC-2)”, “1301 (Confirmation screen.), 1048 (Primary screen.)]” for “1297, 1032 ]”; type: functional
[9] = target: T4, Short transient receptor potential channel 4 (Mus musculus, UniProt Q9QUQ5); experiment: calcium entry via TRPC4 opening agents – cell-based, HEK293 TRPC4/mu-opioid, Fluo-4 calcium, dose response (AID 434937); type: functional
T4 sequence (Q9QUQ5 whole entry): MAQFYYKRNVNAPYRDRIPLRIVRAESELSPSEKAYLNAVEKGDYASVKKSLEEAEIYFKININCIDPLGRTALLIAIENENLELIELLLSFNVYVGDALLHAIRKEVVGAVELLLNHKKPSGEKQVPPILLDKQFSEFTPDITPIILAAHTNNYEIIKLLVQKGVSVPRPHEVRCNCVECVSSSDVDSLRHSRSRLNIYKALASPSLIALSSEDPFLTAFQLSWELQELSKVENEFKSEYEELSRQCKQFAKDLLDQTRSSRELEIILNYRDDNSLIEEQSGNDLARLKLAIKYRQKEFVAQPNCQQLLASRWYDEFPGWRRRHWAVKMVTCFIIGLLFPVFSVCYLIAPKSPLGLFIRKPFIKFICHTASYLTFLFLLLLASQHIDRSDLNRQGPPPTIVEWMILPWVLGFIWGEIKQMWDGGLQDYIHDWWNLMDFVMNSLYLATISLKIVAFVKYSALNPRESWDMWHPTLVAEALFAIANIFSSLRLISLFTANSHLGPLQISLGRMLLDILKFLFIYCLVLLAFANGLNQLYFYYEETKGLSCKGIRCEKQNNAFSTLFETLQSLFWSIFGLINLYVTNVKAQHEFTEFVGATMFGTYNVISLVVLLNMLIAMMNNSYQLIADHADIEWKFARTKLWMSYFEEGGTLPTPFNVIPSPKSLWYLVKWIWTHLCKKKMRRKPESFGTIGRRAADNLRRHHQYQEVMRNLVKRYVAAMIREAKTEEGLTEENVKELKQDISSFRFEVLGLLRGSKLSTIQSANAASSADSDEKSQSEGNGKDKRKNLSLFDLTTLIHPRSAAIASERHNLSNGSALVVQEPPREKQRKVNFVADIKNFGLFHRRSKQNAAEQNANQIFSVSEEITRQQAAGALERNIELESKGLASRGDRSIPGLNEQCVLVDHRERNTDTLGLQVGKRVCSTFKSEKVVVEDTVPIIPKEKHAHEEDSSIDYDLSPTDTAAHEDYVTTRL

SUMO-activating enzyme [10] = target: T5, SUMO-activating enzyme (Homo sapiens, UniProt Q9UBT2); experiment: blockers of SAE1/SAE2–UBC9 SUMO transfer – biochemical, HTRF, uHTS, primary screen (AID 2006); type: protein-complex assay
SUMO-activating enzyme [11] = target: T5, SUMO-activating enzyme; experiment: blockers of UBC9-mediated SUMO conjugation – biochemical, AlphaScreen, SUMOylation inhibitor project, confirmation (AID 2018); type: functional
Ephrin type-A receptor 4 = Ephrin type-A receptor 4 (Mus musculus, UniProt Q03137); experiment: EphA4 ligand-binding antagonists – biochemical, colorimetric, mouse EphA4, primary screen (AID 689); type: functional
SUMO E1/E2 = SUMO E1/E2 (Homo sapiens, UniProt P63279+Q9UBE0+Q9UBT2); experiment: SAR analysis of SUMOylation using HTRF in an in-Vitro dose response assay. [Related pubchem assays (depositor defined):AID2006, AID2011, AID2018, AID2069, AID2658]; type: functional
[12] = target: T6, Alkaline phosphatase, tissue-nonspecific isozyme (Homo sapiens, UniProt P05186); experiment: potency against alkaline phosphatase TNAP – biochemical, luminescent, dose response, SAR follow-up (AID 1056)
T6 sequence (P05186 whole entry): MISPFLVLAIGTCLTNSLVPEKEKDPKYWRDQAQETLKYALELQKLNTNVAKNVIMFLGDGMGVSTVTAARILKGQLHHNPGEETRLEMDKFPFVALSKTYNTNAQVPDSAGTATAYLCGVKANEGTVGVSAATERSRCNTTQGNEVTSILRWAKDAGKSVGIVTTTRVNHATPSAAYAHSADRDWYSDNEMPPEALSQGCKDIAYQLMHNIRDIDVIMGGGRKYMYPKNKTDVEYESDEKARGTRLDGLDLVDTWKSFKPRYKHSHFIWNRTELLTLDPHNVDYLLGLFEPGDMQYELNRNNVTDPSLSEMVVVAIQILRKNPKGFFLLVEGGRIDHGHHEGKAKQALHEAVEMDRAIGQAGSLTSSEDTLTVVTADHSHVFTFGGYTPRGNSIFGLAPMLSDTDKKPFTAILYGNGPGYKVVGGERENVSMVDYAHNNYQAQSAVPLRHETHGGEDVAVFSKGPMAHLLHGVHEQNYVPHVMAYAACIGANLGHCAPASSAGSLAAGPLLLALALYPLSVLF

[13] = target: Alkaline phosphatase, placental type (Homo sapiens, UniProt P05187); experiment: human placental alkaline phosphatase inhibition – biochemical, luminescence, confirmation (AID 1512); type: functional
INS1 = experiment: INS-1E survival protection against cytokine death – cell-based, luminescence, retest, dose response (AID 449756); type: functional; conditions: Rattus norvegicus;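 also: cell death triggered by IL-1 beta plus TNF-alpha plus IFN-gamma mixture; protective hits raise ATP signal compared with cytokine alone wells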
[14] = HepG2 cell cytotoxicity, dose response, cytotoxicity control for non-replicating M. tuberculosis project (AID 489018); type: functional; conditions: Mycobacterium tuberculosis
[15] = viability of HCT116 lacking mutant beta-catenin – cell-based, human colon tumor, dose response (AID 1045); type: functional;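 also: HCT116 colon tumor cells with beta catenin knocked out; cells exposed to compound for 60 hours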
cells = type: functional
[16] = viability of PTEN-deleted HCT116 cells – cell-based, HCT116 PTEN knockout, dose response (AID 1047); type: functional;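 also: HCT116 colon tumor cells with PTEN knocked out; cells exposed to compound for 60 hours before readout; potency for loss of cell viability measured by luminescence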
[17] = THP-1 cell cytotoxicity, dose response, cytotoxicity control for non-replicating M. tuberculosis project (AID 489025); type: functional
[18] = Vero E6 cell cytotoxicity, dose response, cytotoxicity control for non-replicating M. tuberculosis project, secondary assay (AID 492998); type: functional, VeroE6; conditions: Vero C1008
[19] = target: Glyceraldehyde-3-phosphate dehydrogenase (Homo sapiens, UniProt P04406)

Structure (SMILES): CCOc1cc(C2C3=C(CCCC3=O)N(CCC(=O)O)C3=C2C(=O)CCC3)ccc1OS(=O)(=O)c1ccc(C)cc1
- IC50 [1]: 0.629 µM (active)
- IC50 [2]: 30.5 µM (active)

Structure (SMILES): O=C(Nc1nc(-c2nc3ccccc3s2)cs1)C1COc2ccccc2O1 (configuration not stated)
- EC50 (Troponin, cardiac muscle): > 71.5 µM (inactive)
- IC50 (Estrogen receptor): 25.1 µM (active)

Structure (SMILES): Cc1cccn2c(=O)c(/C=C(\C#N)C(=O)NCc3ccco3)c(N3CCC(C(N)=O)CC3)nc12
- IC50 [1]: > 100 µM (inactive)
- IC50 [2]: > 100 µM (inactive)

Structure (SMILES): CCOc1cc(C2C(C(=O)OC)=CN(C3CCCC3)C=C2C(=O)OC)cc(Br)c1O
- EC50 [3]: > 53 µM (inactive)
- IC50 [4]: > 47.1 µM (inactive)
- IC50 (Protein Rev): > 75.4 µM (not active)
- IC50 [5]: > 59.6 µM (inactive)

Structure (SMILES): CCCC(C)NC(=O)c1ccc(OCc2ccc(Cl)cc2)c(OC)c1 (configuration not stated)
- EC50 [6]: > 79.4 µM (not active)
- EC50 [7]: 157 µM (inactive)
- EC50 [8]: 13.8 µM (not active)

Structure (SMILES): CCn1c(N2CCN(C(S)=NCC(C)C)CC2)nc2ccccc21
- EC50 [9]: 1.68 µM (active)

Structure (SMILES): Cc1ccc(NC(=O)c2ccccc2OCC(=O)Nc2cccc(Cl)c2C)nc1
- IC50 (SUMO-activating enzyme [10]): 17.8 µM (active)
- IC50 (SUMO-activating enzyme [11]): 34.5 µM (active)

Structure (SMILES): COc1ccc(-n2c(NC(=O)c3ccc(Br)o3)c(C#N)c3nc4ccccc4nc32)cc1
- IC50 (SUMO-activating enzyme [10]): 17.8 µM (active)
- IC50 (SUMO-activating enzyme [11]): 8.09 µM (active)
- IC50 (Ephrin type-A receptor 4): > 100 µM (not active)
- IC50 (SUMO E1/E2): 20.2 µM (active)

Structure (SMILES): CCc1nnc(SCC(=O)c2ccc(O)c(O)c2)[nH]1
- IC50 [12]: 10.9 µM (active)
- IC50 [13]: 3.25 µM (active)

Structure (SMILES): CCn1cc(CN2CCC(n3nccc3NC(=O)CCOc3ccccc3)CC2)cn1
- EC50 [9]: 1.19 µM (active)

Structure (SMILES): O=C(Cc1ccccc1)N/N=C/c1ccc([N+](=O)[O-])s1
- AC50 (INS1): 6.38 µM (active)
- CC50 [14]: 16 µM (active)
- EC50 [15]: 8.44 µM (active)
- IC50 (cells): 11.1 µM (active)
- EC50 [16]: 9.53 µM (active)
- CC50 [17]: 26.6 µM (active)
- CC50 [18]: 12.5 µM (active)

Structure (SMILES): O=C(c1cc(-c2ccc(Cl)cc2Cl)n[nH]1)N1CCOCC1
- IC50 [19]: > 100 µM (not active)
- IC50 [13]: > 100 µM (inactive)
